Test results as given in patent US20180311238A1, “Selective Agonist Of a6 Containing nAChRs” (Saniona A/S, priority 2017, published 2018).

Tested on: reserpine-induced tremors
Experiment: Reserpine-induced tremors in rats (tremor monitor power spectra)
Format: in vivo, rat
Conditions: for effect on reserpine-induced tremors in pilot studies: rats, L-DOPA with benserazide
Excerpt: Parkinson's disease is associated with severe dopamine deficiency caused by neurodegeneration of dopaminergic cell bodies residing in Substantia Nigra pars compacta. As alpha6 nAChRs are enriched in the nigrostriatal dopamine pathway, activating this receptor may ameliorate symptoms in nigro-striatal dopamine deficiency models. Reserpine injections to rodents result in depletion of monoamines in the nigro-striatal dopamine pathway, resulting in catalepsy and tremors. Both behaviours can be quantified using dedicated tremor boxes.
Six groups of male Sprague Dawley rats (250-300 grams) were subjected to the following treatment schedules, and effects on power spectra, assessed in automated tremor monitors were evaluated for 30 minutes: • Vehicle+vehicle • Vehicle+reserpine (1 mg/kg) • 9-Methyl-3-pyridin-3-yl-3,9-diaza-bicyclo[3.3.1]nonane (0.1 mg/kg)+reserpine (1 mg/kg) • 9-Methyl-3-pyridin-3-yl-3,9-diaza-bicyclo[3.3.1]nonane (1.0 mg/kg)+reserpine (1 mg/kg) • L-DOPA (100 mg/kg)+reserpine (1 mg/kg) • 9-Methyl-3-pyridin-3-yl-3,9-diaza-bicyclo[3.3.1]nonane (1.0 mg/kg)+L-DOPA (100 mg/kg)+reserpine (1 mg/kg)
Reserpine was pre-treated i.v. 60 minutes prior to test start in a dose volume of 2 ml/kg. 9-Methyl-3-pyridin-3-yl-3,9-diaza-bicyclo[3.3.1]nonane was pre-treated s.c. 45 minutes prior to test start in a dose volume of 1 ml/kg. The dose of 9-methyl-3-pyridin-3-yl-3,9-diaza-bicyclo[3.3.1]nonane was based on 3H-epibatidin displacement studies showing half maximal displacement of specific binding of 3H-epibatidin in doses equaling 0.15 mg/kg in rats. L-DOPA was pre-treated i.p. 30 minutes prior to test start in a dose volume of 5 ml/kg. […] All animals dosed with L-DOPA was also dosed with the peripherally acting decarboxylase inhibitor Benserazide to prevent the peripheral break down of L-DOPA (benserazide: 50 mg/kg, s.c., 30 min. prior to test start in a dose volume of 1 ml/kg).

[1] = reserpine 1 mg/kg i.v., compound 0.1 and 1.0 mg/kg s.c., L-DOPA 100 mg/kg i.p. + benserazide

| SMILES | effect on reserpine-induced tremors in pilot studies (pilot studies) | activity per se of the L-DOPA dose in pilot studies (pilot studies, L-DOPA 100 mg/kg i.p.) | effect on reserpine-induced tremors, AUC 20-43 Hz (reserpine 1 mg/kg i.v., L-DOPA 100 mg/kg i.p. + benserazide) | effect on reserpine-induced tremors, AUC 40-63 Hz [1] | reversal of reserpine-induced reduction of low frequency movements (catalepsy), AUC 3-13 Hz [1] |
| --- | --- | --- | --- | --- | --- |
| CN1CCc2cccc3c2[C@H]1Cc1ccc(O)c(O)c1-3 [apomorphine] | reverse reserpine-induced tremors |  |  |  |  |
| N[C@@H](Cc1ccc(O)c(O)c1)C(=O)O [L-DOPA] | reverse reserpine-induced tremors | marginal activity per se | without exerting any effects | reduces reserpine-induced tremors | Neither threshold dose of L-DOPA, nor 9-methyl-3-pyridin-3-yl-3,9-diaza-bicyclo[3.3.1]nonane or the combination of the two, was able to reverse this reduction |
